From patent publication US20240245703A1, “TOPICAL APPLICATION OF AGENTS TO REDUCE SUN SENSITIVITY AND IMPROVE TOPICAL PHOTODYNAMIC THERAPY” (Wright State University, priority 2021, published 2024)
Like-named read-outs stand apart in the source and are kept apart here.

Experiments:
[1] = hairless mice, effect of propylene glycol; cited from earlier work
[2] = system: aSMase; assay: residual aSMase activity after treatment of PC12 cells with 10 micromolar agent; format: cell-based; conditions: from Table 1 residual aSMase activity
Method: The data were obtained in a cell-based study by adding 10 micromolar aliquots of the above agents to PC12 cells for the indicated amounts of time (usually 0.5, 6, or 24 hours). Cells were lysed and aSMase activity measured using [choline methyl-14C] sphingomyeline. The amount of aSMase activity following the treatment of the agent was compared to vehicle without any FIASM. […] The data for the listed compounds (n=276) is based on the publication by Kornhuber et al. 2008, including compounds number n=101 combined with an additional set of compounds (n=175) Kornhuber J, Muehlbacher M, Trapp S, Pechmann S, Friedl A, Reichel M, Mühle C, Terfloth L, Groemer T W, Spitzer G M, Liedl K R, Gulbins E, Tripal P. Identification of novel functional inhibitors of acid sphingomyelinase. PLOS One. 2011; 6 (8): e23852. doi: 10.1371/journal.pone.0023852. Epub 2011 Aug. 31. PMID: 21909365; PMCID: PMC3166082. The numbering of compounds is identical to the previous publication for the first 101 compounds. CID=PubChem Compound ID. Set: 1=experimental values from Kornhuber et al. 2008, 2=corrected experimental values of the previously published compounds; 3=newly investigated compounds, Acid/Base: 1=monobase, 2=monoacid, 3=bibase, 4=zwitter. Mean residual activity of ASM is given as % of the corresponding control values.

[3] = system: aSMase; conditions: cited from earlier work; for Residual ASM Activity: 10 micromolar, PC12 cells, % of corresponding control values; for residual aSMase activity after treatment: from Kornhuber et al. 2008
[4] = system: PDT-induced MVP release; assay: PDT-induced MVP release in skin and plasma of mice; format: in vivo
Method: Next, the role of PAF and aSMase in PDT-induced MVP release was assessed. […] Next, the ability of topical PDT to generate MVP in vivo in mice, and the role of aSMase in this process, was determined. […] Two approaches were used to determine if PDT-induced MVP involved aSMase.
The role of aSMase in PDT-mediated MVP release was evaluated in a murine system. For the data shown in FIG. 18, wild-type mice were treated with either sham, 100 μl of 5 mM IMIP, or 90% polyethylene glycol: 10% DMSO vehicle, or 1 μM TPA (as a positive control for MVP release), or PDT using 20 J/cm^2 blue light. Immediately following PDT, the treated areas were given vehicle or imipramine. At 4 hours post-treatment, the mice were euthanized and MVP were measured from duplicate 6-mm punch biopsies and plasma. The data are mean±SD fold increase in MVP normalized to tissue weight/plasma volume. * Denotes statistically significant (P<0.05) changes from sham; #statistically significant (P<0.05) changes from comparator denoted by line by two-way ANOVA; NS not statistically significant.
To confirm the role of aSMase in PDT-induced MVP generation, PDT effects were evaluated in the absence of aSMase was evaluated in a murine system. For the data shown in FIG. 19, wild-type or aSMase-deficient (Smpd1−/−) mice underwent sham or PDT using 20 J/cm^2 blue light. At 4 hours post-treatment, the mice were euthanized and MVP were measured from duplicate 6-mm punch biopsies and plasma. The data are mean±SD fold increase in MVP normalized to tissue weight/plasma volume. * Denotes statistically significant (P<0.05) changes from sham; NS not statistically significant.

[5] = system: human fibroblasts which lack PAFRs; assay: MVP levels in human fibroblasts which lack PAFRs; format: cell-based; conditions: human fibroblasts lacking PAFRs, data not shown
[6] = system: PDT-induced immunosuppression; assay: contact hypersensitivity (CHS) to DNFB after PDT, ear thickness; format: in vivo, mice; conditions: aSMase-deficient (Smpd1-/-) mice, CPAF intraperitoneal
From the text: Five days later the mice underwent sensitization with the neoantigen DNFB. To test for local immunosuppression, DNFB was applied to the PDT-treated area. To test for systemic immunosuppression, the DNFB was applied to back skin at least 2 cm away from the PDT-treated area. Nine days later the mice underwent elicitation reactions to DNFB by application to one ear, with vehicle applied to the other ear. One day later the ear thickness was obtained as a measure of CHS reaction and compared to pre-treatment and vehicle-treated values. Some mice were treated with intraperitoneal CPAF as a positive control for systemic immunosuppression.
For the data shown in FIG. 20, wild-type mice either were injected intraperitoneally with 250 ng CPAF as a positive control for immunosuppression, underwent PDT using 10 J/cm^2 blue light, or received no treatment (SHAM). […] Five days later the mice underwent sensitization with DNFB in PDT-treated (local immunosuppression) or non-PDT-treated skin (systemic immunosuppression). Nine days later the mice underwent elicitation reactions to ears with ear thickness measured at 24 hours. For the data shown in FIG. 21, wild type and aSMase-deficient (Smpd1−/−) mice underwent treatment with CPAF or PDT followed by DNFB sensitization/elicitation reactions as in FIG. 20. The data are mean±SD values. * Denotes statistically significant (P<0.05) changes from sham treatment values using two-way ANOVA.

[7] = system: HaCaT keratinocytes; assay: PDT (5-ALA + blue light) MVP release in HaCaT keratinocytes; format: cell-based, human; conditions: HaCaT
Method: PDT results in acute cellular destruction and inflammation and photosensitivity, as well as delayed immunosuppression. […] Thus, it was of further interest whether experimental PDT of HaCaT keratinocytes generated MVP in vitro. To that end, HaCaT cells were pretreated with 5-ALA alone, or blue light alone, or a 4 hour incubation of 5-ALA in the dark followed by various fluences of blue light, and MVP were measured in the supernatants at 4 hours post blue light. 100 nM CPAF and TPA were used as positive controls for MVP release.
For the data shown in FIG. 14, HaCaT keratinocytes were treated with sham (no treatment), 0.1% ethanol vehicle control (VEH), 100 nM TPA, 100 nM CPAF, 1 mM 5-ALA for 4 hours, or 5-ALA followed by various fluences (2.5-20 J/cm^2) of blue light or blue light alone. Levels of MVPs released into supernatants were measured at 4 hours. […] For the data shown in FIG. 15, human skin explants were treated with sham, 100 μL vehicle (90% ethanol+10% DMSO) (VEH), 1 μM TPA, 1 µM CPAF, 1 mM 5-ALA for 4 hours, blue light or 5-ALA+blue light at 20 J/cm^2. After four hours, duplicate 6-mm punch biopsies were obtained, weighed, and MVPs were measured. The data are the mean±SE from 3-4 separate experiments conducted in duplicate. * Denotes statistically significant (P <0.05) changes from sham values.
Supernatants were collected at 4 hours and MVP measured. The data are the mean±SE MVP fold change from sham-treated values. For the data shown in FIG. 17, human skin explants were treated as in FIG. 15, with the exception that in some experiments 100 μL of 5 mM IMIP was added post-PDT. MVP were measured in duplicate 6-mm punch biopsies obtained 4 hours post-treatment.

For `CN(C)CCC=C1c2ccccc2CCc2ccccc21` [Amitriptyline], the “absorption with propylene glycol” value [1] is listed as “enhances absorption”, the “potency relative to imipramine” value [2] is listed as “approximately three times more potent than imipramine” and the “Residual ASM Activity” value ([3]; incubation time 0.5 h) is listed as 11.7%. For the same compound, the “residual aSMase activity after treatment” value [3] was 11.7%.
With `CCCCCCCCCCCCC/C=C/[C@@H](O)[C@H](CO)NC(C)=O` [C-2 ceramide] the “MVP generation in aSMase KO mice” value ([4]; topical application, aSMase KO mice, data not shown) was “generates MVP in the aSMase KO mice”.
In the case of `CCCCCCCCCCCCCCCCOC[C@H](COP(=O)([O-])OCC[N+](C)(C)C)OC(=O)NC` [CPAF, carbamoyl-PAF], the “MVP levels in fibroblasts” value [5] was “robust increases in MVP levels in response to PDT but not the PAFR agonist CPAF” and the “immunosuppression in aSMase KO mice (CHS to DNFB)” value [6] was “resulted in similar levels of immunosuppression in comparison to wild-type mice”.
With `NCC(=O)CCC(=O)O` [Compound 5-ALA, 5-aminolevulinic acid] the “MVP generation, 5-ALA along with blue light (PDT)” value ([7]; 1 mM 5-ALA 4 hours then 2.5-20 J/cm^2 blue light, 4 h) was “resulted in high levels of MVP generation in a dosage-dependent manner” and the “MVP formation, 5-ALA alone” value ([7]; 1 mM 5-ALA 4 hours without blue light) was “did not generate appreciate MVP formation”.
In the case of `CNCCCN1c2ccccc2CCc2ccccc21` [Desipramine], the “absorption with propylene glycol” value [1] is listed as “enhances absorption” and the “Residual ASM Activity” value ([3]; incubation time 0.5 h) is listed as 15.6%.
In the case of `CNCCC=C1c2ccccc2CCc2ccccc21` [Nortriptyline], the “absorption with propylene glycol” value [1] is listed as “enhances absorption” and the “Residual ASM Activity” value ([3]; incubation time 0.5 h) is listed as 13.3%.
For `OCCN1CCN(CCCN2c3ccccc3Sc3ccc(Cl)cc32)CC1` [Perphenazine], the “Residual ASM Activity” value ([3]; incubation time 0.5 h) is listed as 20.1%.
In the case of `CN1CCC(=C2c3ccccc3Sc3ccccc32)CC1` [Pimethixene], the “Residual ASM Activity” value ([3]; incubation time 24 h) is listed as 16.5%.
For `CCN(CC)C(C)CN1c2ccccc2Sc2ccccc21` (stereo not drawn) [Profenamine], the “Residual ASM Activity” value ([3]; incubation time 0.5 h) is listed as 29.7%.
For `CN(C)CCCN1c2ccccc2Sc2ccccc21` [Promazine], the “Residual ASM Activity” value ([3]; incubation time 0.5 h) is given as 33.6%.
For `CC(CN1c2ccccc2Sc2ccccc21)N(C)C` (stereo not drawn) [Promethazin], the “Residual ASM Activity” value ([3]; incubation time 0.5 h) is listed as 32.2%.
In the case of `CNCCCC1c2ccccc2C=Cc2ccccc21` [Protriptyline], the “Residual ASM Activity” value ([3]; incubation time 0.5 h) is listed as 12.7%.
For `CN[C@H]1CC[C@@H](c2ccc(Cl)c(Cl)c2)c2ccccc21` [Sertraline], the “Residual ASM Activity” value ([3]; incubation time 0.5 h) is listed as 12.3%.
For `CCCCCCCCCCCCCC(=O)O[C@@H]1[C@@H](C)[C@@]2(O)[C@@H](C=C(CO)C[C@]3(O)C(=O)C(C)=C[C@@H]23)[C@@H]2C(C)(C)[C@]12OC(C)=O` [TPA, 12-O-tetradecanoylphorbol-13-acetate], the “MVP levels after topical TPA” value ([4]; wild-type mice, 1 μM TPA, positive control, 4 h) was “resulted in increased levels of MVP”.
For `CC/C(=C(\c1ccccc1)c1ccc(OCCN(C)C)cc1)c1ccccc1` [Tamoxifen], the “Residual ASM Activity” value ([3]; incubation time 6 h) is listed as 4.1%.
For `CC(C)(C)c1ccc(C(O)CCCN2CCC(C(O)(c3ccccc3)c3ccccc3)CC2)cc1` (stereo not drawn) [Terfenadine], the “Residual ASM Activity” value ([3]; incubation time 0.5 h) is given as 21.8%.
For `CSc1ccc2c(c1)N(CCC1CCCCN1C)c1ccccc1S2` (stereo not drawn) [Thioridazin], the “Residual ASM Activity” value ([3]; incubation time 6 h) is listed as 10.4%.
For `C[C@H]1CC[C@]2(NC1)O[C@H]1C[C@H]3[C@@H]4CC[C@H]5C[C@@H](O)CC[C@]5(C)[C@H]4CC[C@]3(C)[C@H]1[C@@H]2C` [Tomatidine], the “Residual ASM Activity” value ([3]; incubation time 24 h) is given as 15.8%.
For `CN1CCN(CCCN2c3ccccc3Sc3ccc(C(F)(F)F)cc32)CC1` [Trifluoperazine], the “Residual ASM Activity” value ([3]; incubation time 6 h) is listed as 8.3%.
For `CN(C)CCCN1c2ccccc2Sc2ccc(C(F)(F)F)cc21` [Triflupromazine], the “Residual ASM Activity” value ([3]; incubation time 0.5 h) is listed as 29.5%.
For `CC(CN(C)C)CN1c2ccccc2CCc2ccccc21` (stereo not drawn) [Trimipramine], the “Residual ASM Activity” value ([3]; incubation time 0.5 h) is listed as 13.8%.
For `c1cc(CN2CCCCC2)cc(OCCCNc2nc3ccccc3s2)c1` [Zolantidine_(SKB41), Zolantidine], the “Residual ASM Activity” value ([3]; incubation time 6 h) is listed as 21.6%.
For `O=C(CCCN1CCC(O)(c2ccc(Cl)cc2)CC1)c1ccc(F)cc1` [haloperidol], the “residual aSMase activity after treatment” value [3] is listed as 86.1%.
